# Values joined by “and” are separate entries in the source; they are usually repeats but may differ in a detail not shown here. Equal values may be shown once. Read-outs that look alike come from different tables or passages of the source.
# Key:
# HepG2 cells [1] = test: HepG2 growth inhibition assay; assay type: cell-based; conditions: Homo sapiens, 10-point dilution series, 48 h, Cell Titre-Glo
# Protocol: HepG2 cells were cultured in Dulbeccos modified eagle's medium (DMEM) supplemented with 10% fetal calf serum (FCS), in a humidified incubator at 37 °C and 5% CO2. Ten-point compound titration assays were performed by treating cells (1 × 10^3) for 48 h in 384 well tissue culture treated plates (Greiner). Cytotoxicity was determined using Cell Titer Glo (Promega) and calculated as a percentage using DMSO as a positive growth control and 10 μM Bortezomib as a negative growth control. EC50 values were calculated using a 4-parameter log dose, non-linear regression analysis, with sigmoidal dose response (variable slope) curve fit using Graph Pad Prism (version 6.05). 0 and 100 constraint parameters were used for curve fitting. […]
# HepG2 cells [2] = tested on: HepG2 cells; parameters: method as in Pingaew et al., 2014; conditions: incubation time of 48 h, MTT assay ref Pingaew et al., 2014; read-out: HepG2 EC50 literature value; cited from earlier work
# [3] = AlphaScreen TruHits counterscreen assay; conditions: 11 pt titration; flag (POORFIT given as ~); read-out: Basigin_IC50_Counter_TruHits IC50
# Protocol: The counterscreen assay was conducted using AlphaScreen TruHits kit (PerkinElmer). Biotinylated acceptor beads and Streptavidin donor beads were both diluted in assay buffer (final concentration of 10 μg/mL). Using the Combi-multidrop, 10 μL of each bead solution (20 μg/mL prepared in assay buffer) was added to every well of the assay plate under subdued lighting. Compound addition and assay readout was performed as described above.
# [4] = biological target: P. falciparum Rh5 (Rh5 – basigin interaction) (Plasmodium falciparum, UniProt Q8IFM5); test: biochemical; assay type: binding; conditions: 11 pt titration of the 45 hits; flag (POORFIT given as ~); two lines per compound; read-out: Basigin_IC50_Assay_Alpha IC50
# Sequence of P. falciparum Rh5 (Rh5 – basigin interaction) (Q8IFM5 24-526): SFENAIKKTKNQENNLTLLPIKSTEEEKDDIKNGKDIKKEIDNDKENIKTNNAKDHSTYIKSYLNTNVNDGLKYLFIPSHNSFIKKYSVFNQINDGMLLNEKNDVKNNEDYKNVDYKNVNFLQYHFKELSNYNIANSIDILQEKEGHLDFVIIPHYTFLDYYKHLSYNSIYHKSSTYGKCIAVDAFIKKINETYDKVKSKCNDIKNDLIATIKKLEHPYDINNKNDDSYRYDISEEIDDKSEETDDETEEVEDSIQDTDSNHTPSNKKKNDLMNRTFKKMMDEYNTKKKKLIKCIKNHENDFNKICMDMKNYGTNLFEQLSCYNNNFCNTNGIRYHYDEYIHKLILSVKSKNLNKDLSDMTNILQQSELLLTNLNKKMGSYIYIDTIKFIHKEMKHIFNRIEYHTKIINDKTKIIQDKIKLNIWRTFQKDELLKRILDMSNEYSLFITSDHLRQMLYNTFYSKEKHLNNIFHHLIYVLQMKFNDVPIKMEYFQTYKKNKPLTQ
# [5] = Basigin_IC50_Counter_Alpha counterscreen; conditions: 11 pt titration; flag (POORFIT given as ~)
# Excerpt: Supplement mmc3.xlsx, sheet "Report" | column: Basigin_IC50_Counter_Alpha IC50
EC50 (HepG2 cells [1]),Compound,EC50 (HepG2 cells [2]),IC50 [3],IC50 [4],IC50 [5]
15.9 µM,"COc1cc([C@@H]2c3cc4c(cc3[C@@H](O[C@@H]3O[C@@H]5CO[C@@H](C)O[C@H]5[C@H](O)[C@H]3O)[C@H]3COC(=O)[C@H]23)OCO4)cc(OC)c1O [Etoposide, reference compound]",30.2 µM,,,
,CC(=O)N1CCN(c2ccc(OC[C@@H]3CO[C@@](Cn4ccnc4)(c4ccc(Cl)cc4Cl)O3)cc2)CC1 [WEHI-1215227],,23.2 µM and 22.1 µM,15.4 µM and 13.9 µM,13.5 µM and 12.1 µM
,CN1CCc2cc(O)cc3c2[C@H]1Cc1ccc(O)c(O)c1-3 [WEHI-1215043],,> 25 µM,4.02 µM and 4.98 µM,> 25 µM
,O=C(Nc1cccc2c(=O)cc(-c3nnn[nH]3)oc12)c1ccc(OCCCCc2ccccc2)cc1 [WEHI-1216506],,24.8 µM and > 25 µM,5.28 µM and ~5.6 µM,10.4 µM and 12.5 µM
,CN1CCc2cccc3c2[C@H]1Cc1ccc(O)c(O)c1-3 [WEHI-1216442],,> 25 µM,~4.07 µM and 4.14 µM,> 25 µM
,COCCCOc1ccnc(C[S+]([O-])c2nc3ccccc3[nH]2)c1C (centres unmarked) [WEHI-1216602],,> 25 µM,1.08 µM and 1.23 µM,> 25 µM
